Publication PMC9775191, “A Subset Screen of the Compounds Australia Scaffold Library Identifies 7-Acylaminodibenzoxazepinones as Potent and Selective Hits for Anti-Giardia Drug Discovery” (Biomedicines, 2022)

Test system: G. duodenalis BRIS/91/HEPU/1279
Assay: Primary Giardia screen at 10 µM (live-cell imaging, automated counting)
Format: cell-based, Giardia duodenalis
Conditions: for % Inhibition n=1 48h / % Inhibition n=1 24h: first singlicate assay; for % Inhibition n=2 24h / % Inhibition n=2 48h: re-assessment
Procedure, shortened: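 One concentration, 10 μM, is screened per compound in singlicate under microaerophilic gas (3% O2, 5% CO2, N2). Inhibition comes from automated image-based counts at 24 and 48 h, relative to 0.2% DMSO controls.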

Row | SMILES | % Inhibition n=1 48h | further results
1 | CCCN1CCN(C(=O)C2=C(C)C(=O)OC23CCN(S(=O)(=O)CC)CC3)CC1 [SN00791149] | 0.0% | 
2 | O=C(Cn1c2ncccc2c(=O)n1-c1ccccc1)NC1CCCC1 [SN00791196] | 18.2% | 
3 | CCC1c2cccn2-c2ccccc2CN1C(=O)NCCc1ccccc1 (stereo not shown) [SN00791262] | 18.8% | 
4 | CCOCCCNC(=O)N1Cc2ccccc2-n2cccc2C1c1ccccc1 (stereo not shown) [SN00791279] | 0.0% | 
5 | COc1cc(-c2noc(-c3cc(-c4ccco4)n[nH]3)n2)cc(OC)c1OC [SN00791289] | 2.3% | 
6 | COc1ccc(-c2noc(-c3cc(-c4cccs4)n[nH]3)n2)cc1 [SN00791300] | 15.5% | 
7 | COc1ccc(Cl)cc1-n1nnc(-c2nsc(NC(=O)c3ccccc3)n2)c1C [SN00791316] | 20.0% | 
8 | COCCN1C(=O)c2oc3ccccc3c2OCC1(C)C(=O)NCc1ccccc1OC (stereo not shown) [SN00791365] | 21.5% | 
9 | COCCCN1C(=O)CSc2c(c(C)nn2-c2ccccc2)C1C(=O)NCc1ccccc1OC (stereo not shown) [SN00791374] | 0.0% | 
10 | Cc1nn(-c2ccccc2)c2c1C(C(=O)NC1CCCC1)N(c1ccc(F)cc1F)C(=O)CS2 (stereo not shown) [SN00791377] | 1.8% | 
11 | Cc1[nH]c(C)c(S(=O)(=O)N2CCCc3ccccc32)c1C(=O)N1CCCCC1 [SN00791426] | 0.0% | 
12 | Cc1c(C(=O)N2CCCCC2)c(S(=O)(=O)N2CCN(c3ccccn3)CC2)c(C)n1C [SN00791445] | 0.0% | 
13 | COc1ccc(OC)c(CNC(=O)c2ccc(N3CCOc4ccccc43)s2)c1 [SN00791505] | 9.9% | 
14 | CCCNC(=O)N1Cc2c(sc3c2CCCC3)-n2cccc2C1CC (stereo not shown) [SN00791532] | 15.0% | 
15 | COc1ccccc1NC(=O)N1Cc2c(sc3c2CCN(C)C3)-n2cccc2C1C (stereo not shown) [SN00791542] | 24.5% | 
16 | CCOC(=O)c1ccccc1NC(=O)N1Cc2c(sc3c2CCN(C)C3)-n2cccc2C1CC (stereo not shown) [SN00791557] | 10.1% | 
17 | CCCN1C(=O)c2c(C(=O)NCCc3ccccc3)ncn2CC1(C)C(=O)NCCC(C)C (stereo not shown) [SN00791583] | 9.0% | 
18 | CCOc1ccc(CCNC(=O)c2c(C)oc3c2C2=NCCN2C=N3)cc1OCC [SN00791607] | 17.8% | 
19 | COc1ccc(CN2CCN(C(=O)c3c(C)oc4c3C3=NCCN3C=N4)CC2)c(OC)c1OC [SN00791620] | 7.4% | 
20 | O=C(c1noc2ncnc(N3CCCC3)c12)N1CCN(c2ccccn2)CC1 [SN00791654] | 7.3% | 
21 | CCN(c1ccc(OC)cc1)S(=O)(=O)c1csc(C(=O)N(C)C)c1 [SN00791689] | 2.7% | 
22 | CCc1ccc(CNC(=O)c2c[nH]nc2-c2ccc(Cl)cc2)cc1 [SN00791699] | 7.3% | 
23 | O=C(c1c[nH]nc1-c1ccc(Cl)cc1)N1CCN(c2ccccc2)CC1 [SN00791700] | 26.6% | 
24 | O=C(c1cc(CN2CCCC2)on1)N1CCN(C(=O)c2ccco2)CC1 [SN00791727] | 0.0% | 
25 | Cc1cc2n(n1)CCCN2CC(=O)N1CCN(c2ccc(Cl)cc2)CC1 [SN00791741] | 2.4% | 
26 | Cc1cc2n(n1)CCCN2CC(=O)N1CCN(c2cccc(Cl)c2)CC1 [SN00791744] | 5.3% | 
27 | COc1ccc(CNc2nc(-c3cccc(OC)c3)no2)cc1 [SN00791772] | 0.0% | 
28 | COc1cccc(-c2noc(Nc3cccc(C)c3)n2)c1 [SN00791775] | 0.0% | 
29 | COc1ccc(C2=Nc3ccccc3N(CC(=O)Nc3cccc(F)c3)C(=O)C2)cc1 [SN00791795] | 54.2% | Average % Inhibition 24h: 12.6%; % Inhibition n=1 24h: 25.2%; % Inhibition n=2 24h: 0.0%; Average % Inhibition 48h: 40.3%; % Inhibition n=2 48h: 26.4%
30 | COc1ccc(C2=Nc3ccccc3N(Cc3cccc(F)c3)C(=O)C2)cc1 [SN00791806] | 50.8% | Average % Inhibition 24h: 8.7%; % Inhibition n=1 24h: 17.4%; % Inhibition n=2 24h: 0.0%; Average % Inhibition 48h: 30.2%; % Inhibition n=2 48h: 9.6%
